From the Kinase Knowledgebase extract (Sharma et al. 2016)
pIC50: −log10 of the molar value. Where “and” joins values, the source holds several entries; their conditions need not be identical. Equal entries are not always repeated.

Tests used:
PIK3CD (Human) = PIK3CD (Human) (UniProt O00329); experiment: Enzyme Assay
PIK3CA (human) = PIK3CA (human) (UniProt P42336); experiment: Enzyme Assay
PIK3CB (Human) = PIK3CB (Human) (UniProt P42338); experiment: Enzyme Assay
PIK3CG (human) [1] = molecular target: PIK3CG (human) (UniProt P48736); experiment: Enzyme Assay
PIK3CG (human) [2] = molecular target: PIK3CG (human) (UniProt P48736); experiment: Cell-Based Assay; settings: u937
PIK3CG (human) [3] = molecular target: PIK3CG (human) (UniProt P48736); experiment: Cell-Based Assay; settings: u937; remark: listed apart in the source

PIK3CB (Human), sequence (P42338 whole entry, looked up): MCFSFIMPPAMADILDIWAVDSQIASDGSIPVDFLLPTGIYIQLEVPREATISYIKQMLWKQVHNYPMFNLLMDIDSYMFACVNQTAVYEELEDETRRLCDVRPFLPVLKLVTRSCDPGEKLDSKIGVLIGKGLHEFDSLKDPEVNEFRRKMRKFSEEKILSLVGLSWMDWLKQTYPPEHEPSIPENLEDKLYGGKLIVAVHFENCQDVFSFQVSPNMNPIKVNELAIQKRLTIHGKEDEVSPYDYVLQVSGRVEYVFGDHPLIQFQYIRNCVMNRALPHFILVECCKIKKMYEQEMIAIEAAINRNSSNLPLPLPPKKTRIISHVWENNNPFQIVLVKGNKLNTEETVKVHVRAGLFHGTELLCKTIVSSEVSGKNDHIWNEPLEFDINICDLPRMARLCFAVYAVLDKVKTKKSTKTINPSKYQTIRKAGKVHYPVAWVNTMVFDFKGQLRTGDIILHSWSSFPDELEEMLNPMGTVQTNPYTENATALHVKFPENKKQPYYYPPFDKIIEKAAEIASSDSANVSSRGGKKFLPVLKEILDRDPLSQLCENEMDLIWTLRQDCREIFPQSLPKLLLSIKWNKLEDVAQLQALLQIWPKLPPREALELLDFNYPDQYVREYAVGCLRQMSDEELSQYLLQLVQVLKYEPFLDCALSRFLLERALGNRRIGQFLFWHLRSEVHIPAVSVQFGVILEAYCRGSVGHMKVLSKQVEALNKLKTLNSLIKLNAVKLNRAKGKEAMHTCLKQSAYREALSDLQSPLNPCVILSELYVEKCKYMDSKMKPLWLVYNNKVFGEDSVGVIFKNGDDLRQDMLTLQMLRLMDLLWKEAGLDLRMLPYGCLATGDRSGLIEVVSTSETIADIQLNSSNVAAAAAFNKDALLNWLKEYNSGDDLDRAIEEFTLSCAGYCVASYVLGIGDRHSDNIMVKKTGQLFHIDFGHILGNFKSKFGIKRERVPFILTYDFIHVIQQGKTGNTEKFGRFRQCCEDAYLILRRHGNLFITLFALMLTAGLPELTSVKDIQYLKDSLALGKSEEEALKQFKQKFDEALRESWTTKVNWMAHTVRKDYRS
PIK3CD (Human), sequence (O00329 whole entry, looked up): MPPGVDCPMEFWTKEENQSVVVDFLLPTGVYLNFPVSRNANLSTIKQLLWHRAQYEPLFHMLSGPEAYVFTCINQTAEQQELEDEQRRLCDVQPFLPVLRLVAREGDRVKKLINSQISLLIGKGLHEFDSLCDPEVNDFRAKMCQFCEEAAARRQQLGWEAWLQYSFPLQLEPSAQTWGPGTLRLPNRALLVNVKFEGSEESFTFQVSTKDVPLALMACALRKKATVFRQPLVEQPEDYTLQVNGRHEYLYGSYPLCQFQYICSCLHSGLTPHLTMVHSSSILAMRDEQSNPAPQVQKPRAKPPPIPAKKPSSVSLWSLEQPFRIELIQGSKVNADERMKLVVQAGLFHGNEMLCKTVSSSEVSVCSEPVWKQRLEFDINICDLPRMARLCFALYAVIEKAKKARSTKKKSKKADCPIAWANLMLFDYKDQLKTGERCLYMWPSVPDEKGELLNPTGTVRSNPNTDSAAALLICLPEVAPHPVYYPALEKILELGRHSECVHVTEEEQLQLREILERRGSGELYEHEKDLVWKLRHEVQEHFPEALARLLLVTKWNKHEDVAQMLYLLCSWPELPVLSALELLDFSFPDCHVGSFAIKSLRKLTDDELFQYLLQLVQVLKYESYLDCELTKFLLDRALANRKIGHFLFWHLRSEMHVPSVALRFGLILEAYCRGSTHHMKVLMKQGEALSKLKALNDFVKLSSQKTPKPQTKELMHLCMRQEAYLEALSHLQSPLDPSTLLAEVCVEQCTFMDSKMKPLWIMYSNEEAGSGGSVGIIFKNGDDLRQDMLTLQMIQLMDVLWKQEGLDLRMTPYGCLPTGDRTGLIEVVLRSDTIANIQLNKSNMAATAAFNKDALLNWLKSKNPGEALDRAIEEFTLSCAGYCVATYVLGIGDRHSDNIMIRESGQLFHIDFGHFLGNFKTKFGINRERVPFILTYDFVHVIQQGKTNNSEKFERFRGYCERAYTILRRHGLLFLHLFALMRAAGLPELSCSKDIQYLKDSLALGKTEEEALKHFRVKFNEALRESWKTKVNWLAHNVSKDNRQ
PIK3CA (human), sequence (P42336 whole entry, looked up): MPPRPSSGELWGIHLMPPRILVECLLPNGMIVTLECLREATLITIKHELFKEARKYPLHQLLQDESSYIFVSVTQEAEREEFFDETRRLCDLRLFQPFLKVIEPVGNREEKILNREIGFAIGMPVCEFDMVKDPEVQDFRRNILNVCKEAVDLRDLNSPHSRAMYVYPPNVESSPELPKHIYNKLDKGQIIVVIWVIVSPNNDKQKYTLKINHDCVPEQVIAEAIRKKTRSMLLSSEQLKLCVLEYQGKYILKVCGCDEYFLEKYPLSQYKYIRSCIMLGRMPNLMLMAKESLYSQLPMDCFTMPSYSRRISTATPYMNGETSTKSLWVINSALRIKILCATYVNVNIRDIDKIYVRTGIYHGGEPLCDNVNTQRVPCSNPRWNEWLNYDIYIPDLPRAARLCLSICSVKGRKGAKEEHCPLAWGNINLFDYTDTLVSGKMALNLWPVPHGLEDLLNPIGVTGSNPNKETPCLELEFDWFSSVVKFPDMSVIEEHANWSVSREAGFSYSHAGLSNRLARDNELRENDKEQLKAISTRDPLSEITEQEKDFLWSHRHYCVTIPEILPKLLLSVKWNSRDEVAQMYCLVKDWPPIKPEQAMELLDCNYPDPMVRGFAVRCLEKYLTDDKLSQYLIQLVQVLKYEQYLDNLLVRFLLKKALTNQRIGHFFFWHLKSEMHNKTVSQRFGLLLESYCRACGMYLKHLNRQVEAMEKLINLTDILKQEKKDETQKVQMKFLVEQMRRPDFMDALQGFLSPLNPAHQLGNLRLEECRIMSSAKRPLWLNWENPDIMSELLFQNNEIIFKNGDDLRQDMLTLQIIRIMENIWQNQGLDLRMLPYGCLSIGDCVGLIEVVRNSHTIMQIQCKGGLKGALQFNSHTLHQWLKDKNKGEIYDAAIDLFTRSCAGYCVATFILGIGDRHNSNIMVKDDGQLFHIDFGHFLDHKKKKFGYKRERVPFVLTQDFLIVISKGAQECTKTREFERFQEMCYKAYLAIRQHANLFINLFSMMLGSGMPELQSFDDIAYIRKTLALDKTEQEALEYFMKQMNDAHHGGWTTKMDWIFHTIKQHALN
PIK3CG (human), sequence (P48736 whole entry, looked up): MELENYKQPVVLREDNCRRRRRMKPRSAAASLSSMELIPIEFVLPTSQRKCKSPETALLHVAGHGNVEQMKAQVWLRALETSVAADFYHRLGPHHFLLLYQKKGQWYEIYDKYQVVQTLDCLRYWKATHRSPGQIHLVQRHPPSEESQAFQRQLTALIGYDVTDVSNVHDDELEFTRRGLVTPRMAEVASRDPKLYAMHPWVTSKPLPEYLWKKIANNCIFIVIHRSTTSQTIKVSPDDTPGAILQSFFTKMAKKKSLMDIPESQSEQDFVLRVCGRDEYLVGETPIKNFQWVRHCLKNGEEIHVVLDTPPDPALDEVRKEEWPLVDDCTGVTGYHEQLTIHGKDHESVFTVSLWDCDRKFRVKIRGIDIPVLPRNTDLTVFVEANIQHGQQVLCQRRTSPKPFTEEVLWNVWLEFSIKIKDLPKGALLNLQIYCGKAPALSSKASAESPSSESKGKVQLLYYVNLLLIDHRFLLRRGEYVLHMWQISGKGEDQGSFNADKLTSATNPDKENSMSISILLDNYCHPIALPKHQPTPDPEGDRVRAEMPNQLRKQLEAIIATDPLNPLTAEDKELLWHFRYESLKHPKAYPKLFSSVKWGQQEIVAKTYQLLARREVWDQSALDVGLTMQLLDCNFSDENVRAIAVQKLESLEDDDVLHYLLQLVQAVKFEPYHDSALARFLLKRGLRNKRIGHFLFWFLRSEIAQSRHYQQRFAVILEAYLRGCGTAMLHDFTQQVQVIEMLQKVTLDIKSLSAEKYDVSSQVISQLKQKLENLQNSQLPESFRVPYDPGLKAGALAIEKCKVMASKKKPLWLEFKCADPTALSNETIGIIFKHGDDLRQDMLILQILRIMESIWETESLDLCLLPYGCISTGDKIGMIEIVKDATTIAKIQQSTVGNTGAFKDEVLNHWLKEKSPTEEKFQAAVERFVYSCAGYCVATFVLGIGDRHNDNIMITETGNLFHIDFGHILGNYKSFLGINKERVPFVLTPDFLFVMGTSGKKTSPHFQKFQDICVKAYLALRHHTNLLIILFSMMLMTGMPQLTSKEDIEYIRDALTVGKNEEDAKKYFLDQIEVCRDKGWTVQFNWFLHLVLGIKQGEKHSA

Compound | pIC50 (PIK3CD (Human)) | pIC50 (PIK3CA (human)) | pIC50 (PIK3CB (Human)) | pIC50 (PIK3CG (human) [1]) | pIC50 (PIK3CG (human) [2]) | pIC50 (PIK3CG (human) [3])
Cc1ccc(S(=O)(=O)NCC(C)(C)CO)cc1-c1cnc(N)c(-c2nc(C3CC3)no2)n1 | 6.48 | 5.96 | < 5.04 | 7.09 |  | 
CN[C@H]1CCC[C@@H]1NS(=O)(=O)c1ccc(C)c(-c2cnc(N)c(-c3ccnc(C)c3)n2)c1 | 5.35 | 5.80 | 5.57 | 6.09 |  | 
Cc1ccc(S(=O)(=O)NCC2(O)CCOCC2)cc1-c1cnc(N)c(-n2cncn2)n1 | 5.82 | 6.18 | 5.84 | 7.03 | 6.41 | 
Cc1ccc(S(=O)(=O)N[C@H]2CC3(C[C@@H](O)C3)C2)cc1-c1cnc(N)c(-c2cn(C)nc2C)n1 (some centres not stated) |  |  |  |  | 7.40 | 
Cc1ccc(S(=O)(=O)NC[C@H]2CNC[C@@H]2O)cc1-c1cnc(N)c(-n2cncn2)n1 | 5.62 | 6.02 | 6.14 | 6.85 |  | 
CN[C@@H]1CCC[C@H]1NS(=O)(=O)c1ccc(C)c(-c2cnc(N)c(-c3ccnc(C)c3)n2)c1 | 6.04 | 6.14 | 5.12 | 6.96 |  | 
Cc1cc(-c2nc(-c3cc(S(=O)(=O)NCC4CCN(C)C4)ccc3C)cnc2N)ccn1 (configuration not stated) |  |  |  |  | < 5.00 | 
Cc1ncc(-c2nc(-c3cc(S(=O)(=O)NCC4COCCN4C)ccc3C)cnc2N)s1 (configuration not stated) |  |  |  |  | 6.84 | 

Other lines, results leading:

pIC50 (PIK3CD (Human)) | pIC50 (PIK3CA (human)) | pIC50 (PIK3CB (Human)) | pIC50 (PIK3CG (human) [1]) | pIC50 (PIK3CG (human) [2]) | pIC50 (PIK3CG (human) [3]) | Compound
6.53 | 6.70 | < 5.04 | 7.92 | 6.89 |  | Cc1ccc(S(=O)(=O)NCCC(C)(C)O)cc1-c1cnc(N)c(-c2nc(C3CC3)no2)n1
5.77 | 6.74 | 5.28 | 7.29 | 7.20 |  | Cc1cc(-c2nc(-c3cc(S(=O)(=O)N[C@H]4CC[C@H](N)CC4)ccc3C)cnc2N)ccn1
 |  |  |  |  | 6.62 | Cc1ccc(S(=O)(=O)NC[C@@H]2COCCN2C)cc1-c1cnc(N)c(-c2cn(C)nc2C)n1.Cc1ccc(S(=O)(=O)NC[C@H]2COCCN2C)cc1-c1cnc(N)c(-c2cn(C)nc2C)n1
5.77 | 5.92 | < 5.00 | 7.21 |  |  | Cc1ccc(S(=O)(=O)NCC(C)(C)O)cc1-c1cnc(N)c(-c2nc(C(C)C)no2)n1
 |  |  |  | 7.22 | 6.47 | Cc1ccc(S(=O)(=O)NCC[C@@H](O)C(F)(F)F)cc1-c1cnc(N)c(-c2cn(C)nc2C)n1.Cc1ccc(S(=O)(=O)NCC[C@H](O)C(F)(F)F)cc1-c1cnc(N)c(-c2cn(C)nc2C)n1
 |  |  |  | 6.99 and 6.87 |  | Cc1ccc(S(=O)(=O)N[C@H]2CC[C@@](C)(O)CC2)cc1-c1cnc(N)c(-n2cncn2)n1
 |  |  |  | 6.39 |  | Cc1ccc(S(=O)(=O)NC[C@H]2CCC(C)(C)O2)cc1-c1cnc(N)c(-n2cncn2)n1
7.40 | 7.40 | 6.00 | 8.30 |  |  | Cc1ncc(-c2nc(-c3cc(S(=O)(=O)NCC(F)(F)F)ccc3C)cnc2N)s1
